Data: BindingDB's records for doi:10.1016/s0960-894x(00)00601-6 (National Cancer Istitute-Frederick Cancer Research and …, 2001)

Legend:
[1] = Inhibition of RANTES-induced migration of human embryonic kidney (CCR1/HEK) cell transfectants
[2] = target: T1, C-C chemokine receptor type 1 (Homo sapiens, UniProt P32246); assay: ChEBML_40342
T1 sequence (P32246 whole entry): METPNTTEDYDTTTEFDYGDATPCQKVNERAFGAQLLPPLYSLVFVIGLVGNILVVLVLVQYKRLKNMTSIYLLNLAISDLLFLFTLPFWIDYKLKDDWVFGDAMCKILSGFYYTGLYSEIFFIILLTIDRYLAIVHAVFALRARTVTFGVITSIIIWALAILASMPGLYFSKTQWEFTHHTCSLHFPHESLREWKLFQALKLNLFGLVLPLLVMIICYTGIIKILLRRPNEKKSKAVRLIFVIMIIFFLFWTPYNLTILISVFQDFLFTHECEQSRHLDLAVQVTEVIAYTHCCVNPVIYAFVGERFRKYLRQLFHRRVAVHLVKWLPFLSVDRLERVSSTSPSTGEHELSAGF
Excerpt: Inhibition of RANTES-induced migration of human embryonic kidney (CCR1/HEK) cell transfectants

| Structure (SMILES) | IC50 [1] [µM] | IC50 [2] [µM] |
| --- | --- | --- |
| CC(C)CCCC(C)[C@H]1CC[C@H]2[C@@H]3CCC4C[C@@H](CCC=C(c5cc(Cl)c(O)c(C(=O)NCC(=O)O)c5)c5cc(Cl)c(O)c(C(=O)NCC(=O)O)c5)CC[C@]4(C)[C@H]3CC[C@]12C (some centres undefined) | 10 | – |
| [C][C]([C])[C][C][C][C]([C])[C@H]1[C][C][C@H]2[C@@H]3[C][C][C]4[C][C@@H]([C][C][C]=C(c5cc(Cl)c(O[C]c6cccc(B([O])O)c6)c(C(=O)O)c5)c5cc(Cl)c(O[C]c6cccc(B([O])O)c6)c(C(=O)O)c5)[C][C][C@]4([C])[C@H]3[C][C][C@]12[C] [Cosalane derivative] | – | 4 |
| [C][C]([C])[C][C][C][C]([C])[C@H]1[C][C][C@H]2[C@@H]3[C][C][C]4[C][C@@H]([C][C][C]=C(c5cc(Cl)c(O[C]c6ccc(-c7cccc(C([O])=O)c7)cc6)c(C(=O)O)c5)c5cc(Cl)c(O[C]c6ccc(-c7cccc(C([O])=O)c7)cc6)c(C(=O)O)c5)[C][C][C@]4([C])[C@H]3[C][C][C@]12[C] [5-{1-{3-carboxylato-4-[4-(3-carboxyphenyl)benzyloxy]-5-chlorophenyl}-4-[1-(1,5-dimethylhexyl)-9a,11a-dimethylperhydrocyclopenta[a]phenanthren-7-yl]-1-butenyl}-2-[4-(3-carboxyphenyl)benzyloxy]-3-chlorobenzoate] | – | 9.1 |
| CC(C)CCCC(C)[C@H]1CC[C@H]2[C@@H]3CCC4C[C@@H](CCC=C(c5cc(Cl)c(O)c(C(=O)O)c5)c5cc(Cl)c(O)c(C(=O)O)c5)CC[C@]4(C)[C@H]3CC[C@]12C (some centres undefined) | 0.26 | – |
